Laboratory results from US20240385195A1, “PEPTIDE FOR DETECTING CA125 AND USE THEREOF” (Ajou University Industry-Academic Cooperation Foundation, priority 2022, published 2024).
No end group written: not given here.

Columns and labels:
CA125 protein = experiment: ELISA assay of binding affinity and specificity; parameters: species or system human; conditions: HRP-conjugated M13 antibody, TMB, FIG. 1
Method: (§1) In order to evaluate the binding affinity and specificity of the discovered SEQ ID NO: 1 peptide to the CA125 protein, and the binding affinity and specificity of the SEQ ID NO: 2 peptide to HE4, ELISA assay was performed according to the manufacturer's instructions using CA125 protein (R&D Systems Inc, MN, USA), HE4 protein (Sinobiological, PA, USA), HRP-conjugated M13 antibody (Sinobiological, PA, USA), and TMB solution (Thermo Scientific, MA, USA). In addition, to measure the binding affinity Kd (dissociation constant), the discovered peptides of SEQ ID NO: 1 and SEQ ID NO: 2 were synthesized (Biostem, Suwon, Korea), CA125 protein and HE4 protein were each fluorescently labeled using Protein Labeling kit RED-NHS 2nd Generation (NanoTemper Technologies, Munich, Germany). Afterwards, the binding affinity between peptide and protein was measured using Monolith NT.115 (NanoTemper Technologies, Munich, Germany) according to the manufacturer's instructions.

HE4 protein = target: T1, HE4 protein (Homo sapiens, UniProt Q14508); experiment: ELISA assay of binding affinity and specificity; conditions: HRP-conjugated M13 antibody, TMB, FIG. 1
T1 construct: purchased Sinobiological, PA, USA
T1 sequence (Q14508 31-124): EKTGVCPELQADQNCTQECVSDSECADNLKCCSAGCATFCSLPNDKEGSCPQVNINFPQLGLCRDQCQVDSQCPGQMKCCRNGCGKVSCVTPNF
Method: as §1

Substance | specific binding to CA125 protein (CA125 protein) | specific binding to HE4 protein (HE4 protein)
HTHGAARVPDHR [SEQ ID NO: 1] | specifically bound to the CA125 protein | 
LGSKPIN [SEQ ID NO: 2, LGSKPIN] |  | specifically bound to the HE4 protein
